Measured values reported in PMC7497641, “Neurotropic activity and safety of methylene-cycloalkylacetate (MCA) derivative 3-(3-allyl-2-methylenecyclohexyl) propanoic acid” (ACS Chemical Neuroscience, 2020).

Legend:
[1] = target: T1, Nicotinic acetylcholine Receptor alpha-4 beta-2 (nAChR(a4/b2)) (Homo sapiens, UniProt P17787+P43681); test: cell-based; conditions: Ion channel, read-out: RC50 (the source's name)
T1 construct: host or cells: unnamed DiscoverX cell line

[2] = target: 5-Hydroxy tryptamine (Serotonin) Receptor 2A (HTR2A) (Homo sapiens, UniProt P28223); test: SAFETYscan GPCR Calcium Flux; type: cell-based
[3] = target: T2, Kv11.1, the alpha subunit of a potassium ion channel (hERG) (Homo sapiens, UniProt Q12809); test: cell-based; conditions: Blocker
T2 construct: host or cells: unnamed DiscoverX cell line

[4] = target: T3, 5-Hydroxy tryptamine (Serotonin) Receptor 1B (HTR1B) (Homo sapiens, UniProt P28222); test: SAFETYscan GPCR cAMP; type: cell-based
T3 construct: host or cells: cAMP Hunter cell lines

[5] = target: T4, Rho Associated Coiled-Coil Containing Protein Kinase 1 (serine-threonine kinase) (ROCK1) (Homo sapiens, UniProt Q13464); test: SAFETYscan KINOMEscan binding assay; conditions: Inhibitor
T4 construct: host or cells: E. coli BL21-derived host (T7 phage) or HEK-293

[6] = system: adult rat spinal cord primary cultures; test: Spinal cord neurons neurite outgrowth assay; type: cell-based; conditions: 10 μM HU-MCA-13
Description: To study the effect of HU-MCA-13 on adult rat spinal cord primary cultures in vitro, we developed a purification procedure that yields enriched different types of spinal cord neuronal cultures. This neurotropic assay was performed using vehicle 1% DMSO in DMEM as control and 10 μM HU-MCA-13. The results in Figure 1 bottom row and Figure 3D clearly indicate that in control there was very poor spontaneous neurite outgrowth of a total length of about 180 μm and NGF induced neurite outgrowth to a total length of about 800 μm. Similarly, HU-MCA-13 induced a neurite outgrowth of 600 μm. Figure 2B indicates cytoskeletal-tubulin protein expression in the cultured neurons. These findings further extend the neurotropic effect of HU-MCA-13 to spinal cord neurons, in addition to DRGs and PC12 cells.
Spinal cords were isolated from adult rats (4–6 months old), and the meninges were removed from the spinal cord. The spinal cord was then cut into small pieces and collected in cold Hibernate A (Brainbits, Springfield, IL, USA), glutamine (0.5 mM), and B27 (Invitrogen, Carlsbad, CA). […] Neurite outgrowth was measured and presented as mean length of a neurite (microns). To measure neuronal survival, 450 cells were counted in 10 randomly chosen microscope fields of a known area in each of the three dishes per condition using a 20× objective and phase-contrast optics. […]

[7] = Blood hematology and biochemistry after intravenous injection; type: in vivo; conditions: 250 mg/kg IV; 24 h from injection
[8] = read-out: RC50 (the source's name)

T2 sequence (Q12809 whole entry): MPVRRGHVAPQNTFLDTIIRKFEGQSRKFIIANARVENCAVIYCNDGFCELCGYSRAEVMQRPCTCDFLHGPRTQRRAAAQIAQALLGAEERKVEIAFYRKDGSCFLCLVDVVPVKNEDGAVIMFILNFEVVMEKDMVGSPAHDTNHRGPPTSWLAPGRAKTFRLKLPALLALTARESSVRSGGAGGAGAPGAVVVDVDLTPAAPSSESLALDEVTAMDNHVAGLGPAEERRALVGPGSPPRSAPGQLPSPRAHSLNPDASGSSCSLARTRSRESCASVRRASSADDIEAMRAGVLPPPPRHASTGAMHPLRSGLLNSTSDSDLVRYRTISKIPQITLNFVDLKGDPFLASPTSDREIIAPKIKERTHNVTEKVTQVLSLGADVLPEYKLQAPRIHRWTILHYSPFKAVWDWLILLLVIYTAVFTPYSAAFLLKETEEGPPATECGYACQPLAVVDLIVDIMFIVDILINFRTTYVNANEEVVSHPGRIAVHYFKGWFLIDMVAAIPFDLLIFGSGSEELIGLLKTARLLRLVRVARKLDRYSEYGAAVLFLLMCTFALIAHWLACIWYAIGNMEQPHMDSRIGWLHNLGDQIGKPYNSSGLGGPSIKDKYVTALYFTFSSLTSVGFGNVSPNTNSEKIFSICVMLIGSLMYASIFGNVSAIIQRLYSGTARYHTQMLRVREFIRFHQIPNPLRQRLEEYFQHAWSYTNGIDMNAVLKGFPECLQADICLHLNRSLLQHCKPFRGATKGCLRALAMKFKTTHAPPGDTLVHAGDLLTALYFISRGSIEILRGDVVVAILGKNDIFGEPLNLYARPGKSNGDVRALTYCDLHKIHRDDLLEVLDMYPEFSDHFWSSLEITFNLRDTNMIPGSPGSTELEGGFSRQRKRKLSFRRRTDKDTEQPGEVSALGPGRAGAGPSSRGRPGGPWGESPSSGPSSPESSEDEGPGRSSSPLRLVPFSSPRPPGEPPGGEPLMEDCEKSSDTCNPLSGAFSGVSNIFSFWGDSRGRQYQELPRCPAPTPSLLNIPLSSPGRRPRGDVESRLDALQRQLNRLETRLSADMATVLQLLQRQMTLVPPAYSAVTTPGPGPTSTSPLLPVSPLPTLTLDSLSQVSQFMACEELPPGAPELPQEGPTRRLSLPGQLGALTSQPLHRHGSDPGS
T3 sequence (P28222 whole entry): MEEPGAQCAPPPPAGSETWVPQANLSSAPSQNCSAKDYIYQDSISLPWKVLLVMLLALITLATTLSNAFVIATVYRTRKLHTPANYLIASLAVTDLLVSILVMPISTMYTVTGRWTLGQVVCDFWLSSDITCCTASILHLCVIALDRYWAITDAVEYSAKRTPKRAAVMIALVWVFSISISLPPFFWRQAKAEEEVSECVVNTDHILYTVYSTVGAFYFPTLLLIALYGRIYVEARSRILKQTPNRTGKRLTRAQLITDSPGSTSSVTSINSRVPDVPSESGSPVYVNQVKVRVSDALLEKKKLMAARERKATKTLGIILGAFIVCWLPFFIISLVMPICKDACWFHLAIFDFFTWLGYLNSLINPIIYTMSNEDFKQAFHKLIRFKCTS
T1 sequence (P43681 29-627 limits assumed): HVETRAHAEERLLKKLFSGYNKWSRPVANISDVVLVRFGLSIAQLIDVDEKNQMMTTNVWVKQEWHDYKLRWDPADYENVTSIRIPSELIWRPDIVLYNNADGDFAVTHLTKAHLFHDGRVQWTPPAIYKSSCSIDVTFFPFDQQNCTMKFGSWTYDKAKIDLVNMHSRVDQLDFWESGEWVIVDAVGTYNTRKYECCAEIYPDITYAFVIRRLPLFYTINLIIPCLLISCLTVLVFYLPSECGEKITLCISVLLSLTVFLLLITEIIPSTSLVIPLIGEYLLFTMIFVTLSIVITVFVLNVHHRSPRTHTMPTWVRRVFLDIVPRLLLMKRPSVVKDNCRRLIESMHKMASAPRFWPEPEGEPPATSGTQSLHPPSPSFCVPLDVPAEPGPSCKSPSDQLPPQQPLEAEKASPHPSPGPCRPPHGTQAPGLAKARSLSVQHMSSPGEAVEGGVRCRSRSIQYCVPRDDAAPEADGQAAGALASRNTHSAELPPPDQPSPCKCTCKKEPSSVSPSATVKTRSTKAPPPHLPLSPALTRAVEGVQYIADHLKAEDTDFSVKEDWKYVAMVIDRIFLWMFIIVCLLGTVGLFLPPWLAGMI
T1 sequence (P17787 26-502): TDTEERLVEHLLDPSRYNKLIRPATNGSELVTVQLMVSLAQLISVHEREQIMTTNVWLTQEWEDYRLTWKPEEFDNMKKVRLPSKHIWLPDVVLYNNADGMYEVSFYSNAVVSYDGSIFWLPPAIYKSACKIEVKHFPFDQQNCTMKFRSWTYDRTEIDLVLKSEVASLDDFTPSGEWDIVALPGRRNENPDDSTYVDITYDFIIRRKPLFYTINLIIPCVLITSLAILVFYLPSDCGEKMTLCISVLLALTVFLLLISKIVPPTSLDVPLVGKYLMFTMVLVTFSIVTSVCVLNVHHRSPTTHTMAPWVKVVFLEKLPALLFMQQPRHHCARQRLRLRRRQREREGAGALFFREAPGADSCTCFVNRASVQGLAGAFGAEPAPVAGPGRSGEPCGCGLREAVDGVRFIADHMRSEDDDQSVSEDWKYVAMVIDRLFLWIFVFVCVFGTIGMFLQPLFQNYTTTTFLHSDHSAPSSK
Sequence of 5-Hydroxy tryptamine (Serotonin) Receptor 2A (HTR2A) (P28223 whole entry): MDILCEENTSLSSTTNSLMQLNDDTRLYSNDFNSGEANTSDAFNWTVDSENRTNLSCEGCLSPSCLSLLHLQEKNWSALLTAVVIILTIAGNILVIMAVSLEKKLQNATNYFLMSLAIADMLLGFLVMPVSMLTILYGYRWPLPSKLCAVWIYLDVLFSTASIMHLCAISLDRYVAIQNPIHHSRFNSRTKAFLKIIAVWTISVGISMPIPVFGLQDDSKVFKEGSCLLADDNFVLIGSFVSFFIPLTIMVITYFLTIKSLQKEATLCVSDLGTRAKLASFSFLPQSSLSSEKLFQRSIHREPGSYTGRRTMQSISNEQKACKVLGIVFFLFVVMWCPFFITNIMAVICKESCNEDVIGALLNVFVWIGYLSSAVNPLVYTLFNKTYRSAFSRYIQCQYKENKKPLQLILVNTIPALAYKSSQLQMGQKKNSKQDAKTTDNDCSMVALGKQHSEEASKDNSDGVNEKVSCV
T4 sequence (Q13464 whole entry): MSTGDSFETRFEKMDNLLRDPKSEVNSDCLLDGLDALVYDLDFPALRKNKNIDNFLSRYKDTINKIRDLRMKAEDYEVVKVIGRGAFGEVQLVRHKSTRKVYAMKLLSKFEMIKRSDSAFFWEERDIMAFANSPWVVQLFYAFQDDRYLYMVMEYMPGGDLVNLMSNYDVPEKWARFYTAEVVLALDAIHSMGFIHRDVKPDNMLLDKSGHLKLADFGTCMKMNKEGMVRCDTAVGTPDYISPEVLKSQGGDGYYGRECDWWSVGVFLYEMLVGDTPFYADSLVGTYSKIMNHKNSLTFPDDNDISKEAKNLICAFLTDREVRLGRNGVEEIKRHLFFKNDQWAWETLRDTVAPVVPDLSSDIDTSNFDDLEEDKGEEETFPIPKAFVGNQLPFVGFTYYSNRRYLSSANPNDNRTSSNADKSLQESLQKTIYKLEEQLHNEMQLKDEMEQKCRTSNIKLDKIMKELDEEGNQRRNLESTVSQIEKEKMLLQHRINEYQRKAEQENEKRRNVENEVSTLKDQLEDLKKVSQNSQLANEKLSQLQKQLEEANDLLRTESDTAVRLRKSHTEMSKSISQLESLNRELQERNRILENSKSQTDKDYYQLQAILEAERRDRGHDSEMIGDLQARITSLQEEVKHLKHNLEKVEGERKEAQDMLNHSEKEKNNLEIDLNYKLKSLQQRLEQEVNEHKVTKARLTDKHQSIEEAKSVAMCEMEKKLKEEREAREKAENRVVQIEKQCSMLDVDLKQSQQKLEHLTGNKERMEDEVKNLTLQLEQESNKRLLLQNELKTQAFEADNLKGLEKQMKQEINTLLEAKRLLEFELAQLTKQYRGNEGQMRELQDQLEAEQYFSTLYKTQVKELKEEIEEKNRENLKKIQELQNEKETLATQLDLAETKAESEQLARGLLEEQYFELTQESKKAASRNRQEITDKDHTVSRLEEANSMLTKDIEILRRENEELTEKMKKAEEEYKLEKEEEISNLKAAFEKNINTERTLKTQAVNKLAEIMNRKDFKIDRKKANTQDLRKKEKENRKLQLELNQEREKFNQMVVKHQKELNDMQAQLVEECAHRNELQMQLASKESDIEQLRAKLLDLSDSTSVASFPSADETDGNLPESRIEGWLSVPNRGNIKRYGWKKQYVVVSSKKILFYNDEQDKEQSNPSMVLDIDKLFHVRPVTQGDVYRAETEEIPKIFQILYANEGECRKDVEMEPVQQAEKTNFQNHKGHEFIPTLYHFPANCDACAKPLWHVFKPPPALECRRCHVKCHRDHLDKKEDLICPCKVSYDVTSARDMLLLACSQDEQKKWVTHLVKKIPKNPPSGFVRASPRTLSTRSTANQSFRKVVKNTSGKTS

C=CCC1CCCC(CCC(=O)O)C1=C (stereo not shown) [HU-MCA-13, 3-(3-allyl-2-methylenecyclohexyl)propanoic acid]
IC50 ([1]; Blocker): > 10 µM
EC50 ([1]; Opener): > 10 µM
EC50 [2]: > 10 µM
IC50 [2]: > 10 µM
MCA-13 Max. Responce ([3]; 10 μM): 0%
IC50 [3, 8]: > 10 µM
EC50 [4]: > 10 µM
IC50 [4]: > 10 µM
inhibition at 10 µM ([5]; 10 μM, read-out: MCA-13 Max. Responce): 21.6%
IC50 [5, 8]: > 10 µM
neurite outgrowth total length [6]: 600 μm
bilirubin concentration versus DMSO [7]: small significant increase
blood count versus DMSO [7]: No difference
coagulation parameters versus DMSO [7]: No difference
electrolytes versus DMSO [7]: No difference
kidney and liver parameters versus DMSO [7]: lack of differences
